# System: 242566-281-R-J2-PDC complex spheroid viability
# Test: Anticancer human tumor 242566-281-R-J2-PDC patient-derived pancreatic carcinoma cell line growth inhibition [RAS]
# Conditions: for IC50: curve of first compound; for viability, T/C: stronger effect = lower value
# In short: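 Multi-cell-type spheroids: tumor cells plus HUVEC endothelial cells and mesenchymal stem cells. RAS-pathway inhibitors were combined with targeted agents, each dosed in half-log steps down from clinical Cmax, or from 10 microM when Cmax was unknown.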
# [1] = second compound 0.00316 µM, first compound 0.00316 µM
# [2] = second compound 0.00316 µM, first compound 0.01 µM
# [3] = second compound 0.00316 µM, first compound 0.0316 µM
# [4] = second compound 0.00316 µM, first compound 0.1 µM
# [5] = second compound 0.00316 µM, first compound 0.316 µM
# [6] = second compound 0.00316 µM, first compound 1 µM
# [7] = second compound 0.01 µM, first compound 0.00316 µM
# [8] = second compound 0.01 µM, first compound 0.01 µM
# [9] = second compound 0.01 µM, first compound 0.0316 µM
# [10] = second compound 0.01 µM, first compound 0.1 µM
# [11] = second compound 0.01 µM, first compound 0.316 µM
# [12] = second compound 0.01 µM, first compound 1 µM
# [13] = second compound 0.0316 µM, first compound 0.00316 µM
# [14] = second compound 0.0316 µM, first compound 0.01 µM
# [15] = second compound 0.0316 µM, first compound 0.0316 µM
# [16] = second compound 0.0316 µM, first compound 0.1 µM
# [17] = second compound 0.0316 µM, first compound 0.316 µM
# [18] = second compound 0.0316 µM, first compound 1 µM
# [19] = second compound 0.1 µM, first compound 0.00316 µM
# [20] = second compound 0.1 µM, first compound 0.01 µM
# [21] = second compound 0.1 µM, first compound 0.0316 µM
# [22] = second compound 0.1 µM, first compound 0.1 µM
# [23] = second compound 0.1 µM, first compound 0.316 µM
# [24] = second compound 0.1 µM, first compound 1 µM
# [25] = second compound 0.316 µM, first compound 0.00316 µM
# [26] = second compound 0.316 µM, first compound 0.01 µM
# [27] = second compound 0.316 µM, first compound 0.0316 µM
# [28] = second compound 0.316 µM, first compound 0.1 µM
# [29] = second compound 0.316 µM, first compound 0.316 µM
# [30] = second compound 0.316 µM, first compound 1 µM
# [31] = second compound 1 µM, first compound 0.00316 µM
# [32] = second compound 1 µM, first compound 0.01 µM
# [33] = second compound 1 µM, first compound 0.0316 µM
# [34] = second compound 1 µM, first compound 0.1 µM
# [35] = second compound 1 µM, first compound 0.316 µM
# [36] = second compound 1 µM, first compound 1 µM
# 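Note: spheroids exposed to compound for 7 days before readout.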
# 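Throughout, for viability, T/C: 100% = DMSO vehicle control wells.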
smiles,measurement,setting,value
CC1(C)CCC(Nc2ncc(C(F)(F)F)c(-c3c[nH]c4c(P(C)(C)=O)c(C#N)ccc34)n2)CN1 (stereo unspecified) + C#Cc1c(F)ccc2cc(O)cc(-c3ncc4c(N5CC6CCC(C5)N6)nc(OCC56CCCN5CC(F)C6)nc4c3F)c12,IC50,second compound 0.0316 µM,> 300 nM
same,IC50,second compound 0.1 µM,> 300 nM
same,IC50,second compound 0.316 µM,> 300 nM
same,IC50,second compound 1 µM,> 300 nM
same,IC50,second compound 3.16 µM,> 300 nM
same,IC50,second compound 10 µM,< 0.949 nM
same,"viability, T/C","second compound 0.0316 µM, first compound 0.000949 µM",90.3%
same,"viability, T/C","second compound 0.0316 µM, first compound 0.003 µM",111%
same,"viability, T/C","second compound 0.0316 µM, first compound 0.00949 µM",85.6%
same,"viability, T/C","second compound 0.0316 µM, first compound 0.03 µM",86.4%
same,"viability, T/C","second compound 0.0316 µM, first compound 0.0949 µM",84.9%
same,"viability, T/C","second compound 0.0316 µM, first compound 0.3 µM",88.8%
same,"viability, T/C","second compound 0.1 µM, first compound 0.000949 µM",78.1%
same,"viability, T/C","second compound 0.1 µM, first compound 0.003 µM",81.8%
same,"viability, T/C","second compound 0.1 µM, first compound 0.00949 µM",71.6%
same,"viability, T/C","second compound 0.1 µM, first compound 0.03 µM",81.7%
same,"viability, T/C","second compound 0.1 µM, first compound 0.0949 µM",81.2%
same,"viability, T/C","second compound 0.1 µM, first compound 0.3 µM",81.3%
same,"viability, T/C","second compound 0.316 µM, first compound 0.000949 µM",70.7%
same,"viability, T/C","second compound 0.316 µM, first compound 0.003 µM",66.6%
same,"viability, T/C","second compound 0.316 µM, first compound 0.00949 µM",62.3%
same,"viability, T/C","second compound 0.316 µM, first compound 0.03 µM",60.5%
same,"viability, T/C","second compound 0.316 µM, first compound 0.0949 µM",62.9%
same,"viability, T/C","second compound 0.316 µM, first compound 0.3 µM",62.9%
same,"viability, T/C","second compound 1 µM, first compound 0.000949 µM",59.4%
same,"viability, T/C","second compound 1 µM, first compound 0.003 µM",59.8%
same,"viability, T/C","second compound 1 µM, first compound 0.00949 µM",49.3%
same,"viability, T/C","second compound 1 µM, first compound 0.03 µM",47.4%
same,"viability, T/C","second compound 1 µM, first compound 0.0949 µM",55.1%
same,"viability, T/C","second compound 1 µM, first compound 0.3 µM",59.5%
same,"viability, T/C","second compound 3.16 µM, first compound 0.000949 µM",50.8%
same,"viability, T/C","second compound 3.16 µM, first compound 0.003 µM",57.5%
same,"viability, T/C","second compound 3.16 µM, first compound 0.00949 µM",48.4%
same,"viability, T/C","second compound 3.16 µM, first compound 0.03 µM",47.4%
same,"viability, T/C","second compound 3.16 µM, first compound 0.0949 µM",49.8%
same,"viability, T/C","second compound 3.16 µM, first compound 0.3 µM",53.3%
same,"viability, T/C","second compound 10 µM, first compound 0.000949 µM",45.2%
same,"viability, T/C","second compound 10 µM, first compound 0.003 µM",50%
same,"viability, T/C","second compound 10 µM, first compound 0.00949 µM",44.7%
same,"viability, T/C","second compound 10 µM, first compound 0.03 µM",50.2%
same,"viability, T/C","second compound 10 µM, first compound 0.0949 µM",53.4%
same,"viability, T/C","second compound 10 µM, first compound 0.3 µM",44.1%
C=CC(=O)Nc1cc(Nc2nccc(-c3cn(C)c4ccccc34)n2)c(OC)cc1N(C)CCN(C)C + C=CC(=O)N1CCN(c2nc(OCC3CCCN3C)nc3c(F)c(-c4nc(N)cc(C)c4C(F)(F)F)c(Cl)cc23)C(C)C1,IC50,second compound 0.00316 µM,> 1000 nM
same,IC50,second compound 0.01 µM,> 1000 nM
same,IC50,second compound 0.0316 µM,> 1000 nM
same,IC50,second compound 0.1 µM,> 1000 nM
same,IC50,second compound 0.316 µM,> 1000 nM
same,IC50,second compound 1 µM,> 1000 nM
same,"viability, T/C",[1],95.1%
same,"viability, T/C",[2],133%
same,"viability, T/C",[3],82.7%
same,"viability, T/C",[4],74.5%
same,"viability, T/C",[5],80.5%
same,"viability, T/C",[6],85.7%
same,"viability, T/C",[7],97.6%
same,"viability, T/C",[8],138%
same,"viability, T/C",[9],86.7%
same,"viability, T/C",[10],93.4%
same,"viability, T/C",[11],86.1%
same,"viability, T/C",[12],84.8%
same,"viability, T/C",[13],109%
same,"viability, T/C",[14],121%
same,"viability, T/C",[15],90.7%
same,"viability, T/C",[16],91%
same,"viability, T/C",[17],79.8%
same,"viability, T/C",[18],78.3%
same,"viability, T/C",[19],105%
same,"viability, T/C",[20],136%
same,"viability, T/C",[21],103%
same,"viability, T/C",[22],95.4%
same,"viability, T/C",[23],78.9%
same,"viability, T/C",[24],76.8%
same,"viability, T/C",[25],104%
same,"viability, T/C",[26],121%
same,"viability, T/C",[27],96.4%
same,"viability, T/C",[28],79.2%
same,"viability, T/C",[29],95.3%
same,"viability, T/C",[30],87.2%
same,"viability, T/C",[31],108%
same,"viability, T/C",[32],129%
same,"viability, T/C",[33],81%
same,"viability, T/C",[34],112%
same,"viability, T/C",[35],83.7%
same,"viability, T/C",[36],89.8%
O=C(c1ccc(F)c(F)c1Nc1ccc(I)cc1F)N1CC(O)([C@@H]2CCCCN2)C1 + C=CC(=O)N1CCN(c2nc(OCC3CCCN3C)nc3c(F)c(-c4nc(N)cc(C)c4C(F)(F)F)c(Cl)cc23)C(C)C1,IC50,second compound 0.00316 µM,260 nM
same,IC50,second compound 0.01 µM,677 nM
same,IC50,second compound 0.0316 µM,436 nM
same,IC50,second compound 0.1 µM,593 nM
same,IC50,second compound 0.316 µM,> 1000 nM
same,IC50,second compound 1 µM,281 nM
same,"viability, T/C",[1],91.4%
same,"viability, T/C",[2],116%
same,"viability, T/C",[3],92.6%
same,"viability, T/C",[4],64.8%
same,"viability, T/C",[5],48%
same,"viability, T/C",[6],43.9%
same,"viability, T/C",[7],92.5%
same,"viability, T/C",[8],116%
same,"viability, T/C",[9],79.7%
same,"viability, T/C",[10],73.5%
same,"viability, T/C",[11],53.5%
same,"viability, T/C",[12],47.4%
same,"viability, T/C",[13],104%
same,"viability, T/C",[14],117%
same,"viability, T/C",[15],80.2%
same,"viability, T/C",[16],74.6%
same,"viability, T/C",[17],52.9%
same,"viability, T/C",[18],42.1%
same,"viability, T/C",[19],103%
same,"viability, T/C",[20],104%
same,"viability, T/C",[21],94.4%
same,"viability, T/C",[22],70.6%
same,"viability, T/C",[23],60.6%
same,"viability, T/C",[24],43%
same,"viability, T/C",[25],103%
same,"viability, T/C",[26],113%
same,"viability, T/C",[27],68.3%
same,"viability, T/C",[28],70.7%
same,"viability, T/C",[29],61%
same,"viability, T/C",[30],48.7%
same,"viability, T/C",[31],101%
same,"viability, T/C",[32],112%
same,"viability, T/C",[33],97.9%
same,"viability, T/C",[34],73.4%
same,"viability, T/C",[35],45.8%
same,"viability, T/C",[36],44.6%
